Test results from US4267102A, “Bleomycin group antibiotics” (Nippon Kayaku Kabushiki Kaisha, priority 1979, dated 1981).
“And” between values parts separate entries of the source, which are not always exact repeats. Identical values can stand only once.

Assays:
[1] = test system: DNA labelled with tritium; test: DNA-strand cleaving activity in cell-free system; format: biochemical; details: copper-free compound with divalent iron, oxygen, 37° C., 5 minutes
Method: 2. DNA-strand cleaving activity in cell-free system.
The mechanism of carcinostatic action of bleomycins has been believed to involve the cleavage of DNA chain caused by the joint action of copper-free bleomycins, divalent iron and molecular oxygen. Similar activity of N-methylbleomycins were also confirmed.
A mixture of divalent iron and a copper-free N-methylbleomycin was dissolved together with DNA labelled with tritium in a M/10 phosphate buffer of pH 7.4 The resulting solution was allowed to react in the presence of oxygen at 37° C. for 5 minutes. To the reaction mixture, was added 25% trichloroacetic acid. The precipitate was removed by centrifugation and the supernatant (acid-soluble fraction) was assayed for radioactivity to obtain the percentage of acid-soluble DNA in acid. This percentage was utilized as an index of the degree of DNA-strand cleavage. Similar test was repeated on bleomycins A2 and B2 used as reference.

[2] = test system: HeLa S3 cells; test: Growth inhibitory effect on cultured HeLa cells; format: cell-based; details: Cu-free; three days cultivation with sample
Method: 3. Growth inhibitory effect on cultured HeLa cells.
HeLa S3 cells were inoculated into a medium (MEM with the addition of 10% calf serum) in a plastic Petri dish. After two days from the inoculation, N-methylbleomycinic acid or a N-methylbleomycin was added to the dish and after cultivation for further three days, the number of cells was counted. The growth inhibition (%) was calculated by the following equation: [formula] where A is the final number of cells on the third day from the addition of the test sample, B the final number of cells in a control culture without the addition of the test sample, and C the number of cells at the time of addition of the test sample. The value of ID50 (concentration for 50% inhibition) was calculated from the graph obtained by plotting the concentration of sample against the growth inhibition. A similar test was performed on bleomycinic acid and bleomycins used as control.

[3] = test system: Mycobacterium smegmatis ATCC 607; test: Antimicrobial activity against Mycobacterium smegmatis ATCC 607 (cylinder agar plate method); format: cell-based
Method: 4. Antimicrobial activity against Mycobacterium smegmatis ATCC 607.
The antibacterial activity was assayed by the cylinder agar plate method against the above bacterium by assuming the activity of standard copper-free bleomycin A2 to be 1,000 mcg units/mg.
Note: Antimicrobial activity was assayed against Mycobacterium smegmatis ATCC 607 by assuming the activity of bleomycin A2 (copper-free form) to be 1,000 mcg units/mg. The same shall apply hereinafter.

[4] = biological target: inactivating enzyme (Rattus norvegicus, UniProt P70645); details: rat liver extract, 37° C., 15, 30, 60 and 120 minutes; residual activity against Mycobacterium smegmatis ATCC 607
Method: Test for resistance to inactivating enzyme.
(1) Extraction of inactivating enzyme.
The liver of female Donryu strain rat was ground in twice by weight of M/15 phosphate buffer of pH 7.2 to prepare a tissue emulsion. The emulsion was centrifuged at 105,000×G for 60 minutes and the supernatant was dialyzed with the above buffer. A high molecular fraction thus obtained was used as the extract solution of an inactivating enzyme.
(2) Examination of inactivating reaction.

[5] = sample concentration 6.25 mcg/ml
[6] = sample concentration 12.5 mcg/ml
[7] = Table 6, Cu-complex, standard copper-free bleomycin A2 assumed 1,000 mcg units/mg
[8] = Table 6, Cu-free, standard copper-free bleomycin A2 assumed 1,000 mcg units/mg
[9] = Examples, step A product: copper complex hydrochloride, bleomycin A2 (copper-free form) assumed 1,000 mcg units/mg
[10] = Examples, step B product: copper-free hydrochloride, bleomycin A2 (copper-free form) assumed 1,000 mcg units/mg

Chain of inactivating enzyme (P70645 whole entry): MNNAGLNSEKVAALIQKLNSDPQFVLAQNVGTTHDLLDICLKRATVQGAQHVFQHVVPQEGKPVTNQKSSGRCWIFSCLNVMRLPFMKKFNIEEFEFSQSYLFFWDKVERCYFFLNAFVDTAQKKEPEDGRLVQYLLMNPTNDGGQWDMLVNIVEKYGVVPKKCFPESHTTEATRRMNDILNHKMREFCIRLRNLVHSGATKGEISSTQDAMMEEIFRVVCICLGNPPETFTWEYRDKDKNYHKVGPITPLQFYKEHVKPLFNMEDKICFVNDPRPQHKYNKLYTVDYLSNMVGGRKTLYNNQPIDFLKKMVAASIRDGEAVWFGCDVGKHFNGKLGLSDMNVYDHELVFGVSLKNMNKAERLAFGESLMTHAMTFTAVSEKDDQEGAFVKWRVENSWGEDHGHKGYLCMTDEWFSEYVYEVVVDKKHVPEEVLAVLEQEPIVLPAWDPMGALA

Row | Compound | Acid-soluble DNA (%) [1, 5] | Acid-soluble DNA (%) [1, 6] | Acid-soluble DNA (%) ([1]; sample concentration 25 mcg/ml) | 50% growth inhibitory concentration (ID50) against cultured HeLa S3 cells [2] | Antimicrobial activity [3, 7] | Antimicrobial activity [3, 8] | Antimicrobial activity [3, 9] | Antimicrobial activity [3, 10] | Resistance to inactivating enzyme (residual activity with reaction time, FIGS. 1 to 6) [4]
1 | 3-(3-n-butylaminopropylamino)propylamino-N-methylbleomycin [Compound (6)] | 59.5% | 94.0% | 100.4% | 0.37 µg/mL | 3,695 mcg units/mg | 3,438 mcg units/mg | – | – | –
2 | 3-(3-n-butylaminopropylamino)propylaminobleomycin [reference compound] | – | – | – | 0.43 µg/mL | – | – | – | – | –
3 | 3-[(S)-1'-phenylethylamino]propylamino-N-methylbleomycin [Compound (5)] | 70.1% | 92.6% | 100.5% | 0.30 µg/mL | 4,266 mcg units/mg | 4,333 mcg units/mg | 4,320 mcg units/mg | 4,280 mcg units/mg | –
4 | Cc1c(N)nc(C(CC(N)=O)NCC(N)C(N)=O)nc1C(=O)NC(C(=O)NC(C)C(O)C(C)C(=O)NC(C(=O)NCCc1nc(-c2nc(C(=O)NCCCNC(C)c3ccccc3)cs2)cs1)C(C)O)C(OC1OC(CO)C(O)C(O)C1OC1OC(CO)C(O)C(OC(N)=O)C1O)c1c[nH]cn1 [3-[(S)-1'-phenylethylamino]propylaminobleomycin, reference compound] | – | – | – | 0.52 µg/mL | – | – | – | – | –
5 | Cc1c(N)nc([C@H](CC(N)=O)NC[C@H](N)C(N)=O)nc1C(=O)N[C@H](C(=O)N[C@H](C)[C@@H](O)[C@H](C)C(=O)N[C@H](C(=O)NCCc1nc(-c2nc(C(=O)NCCCN)cs2)cs1)[C@@H](C)O)[C@@H](O[C@@H]1O[C@@H](CO)[C@@H](O)[C@H](O)[C@@H]1O[C@H]1O[C@H](CO)[C@@H](O)[C@H](OC(N)=O)[C@@H]1O)c1cnc[nH]1 [Bleomycin A2 -b, bleomycin A2 '-b, reference compound] | – | – | – | 1.5 µg/mL | – | – | – | – | –
6 | Cc1c(N)nc([C@H](CC(N)=O)NC[C@H](N)C(N)=O)nc1C(=O)N[C@H](C(=O)N[C@H](C)[C@@H](O)[C@H](C)C(=O)N[C@H](C(=O)NCCc1nc(-c2nc(C(=O)NCCC[S+](C)C)cs2)cs1)[C@@H](C)O)[C@@H](O[C@@H]1O[C@@H](CO)[C@@H](O)[C@H](O)[C@@H]1O[C@H]1O[C@H](CO)[C@@H](O)[C@H](OC(N)=O)[C@@H]1O)c1c[nH]cn1.[Br-] [Bleomycin A2, reference compound] | 78.6% | 90.8% | 100.9% | 0.73 µg/mL | – | – | – | – | –
7 | Cc1c(N)nc(C(CC(N)=O)NCC(N)C(N)=O)nc1C(=O)NC(C(=O)NC(C)C(O)C(C)C(=O)NC(C(=O)NCCc1nc(-c2nc(C(=O)O)cs2)cs1)C(C)O)C(OC1OC(CO)C(O)C(O)C1OC1OC(CO)C(O)C(OC(N)=O)C1O)c1cnc[nH]1 (centres unmarked) [Bleomycinic acid, reference compound] | – | – | – | 18 µg/mL | – | – | – | – | markedly susceptible
8 | Bleomycin B2 [reference compound] | 85.6% | 95.8% | 98.2% | 0.80 µg/mL | – | – | – | – | –
9 | N-methylbleomycin A2 '-b [Compound (4)] | 61.7% | 94.1% | 99.4% | 0.58 µg/mL | 625 mcg units/mg | 595 mcg units/mg | – | 618 mcg units/mg | –
10 | N-methylbleomycin A2 [Compound (2)] | 64.6% | 90.7% | 99.9% | 0.81 µg/mL | 423 mcg units/mg | 513 mcg units/mg | 520 mcg units/mg and 516 mcg units/mg and 507 mcg units/mg | 418 mcg units/mg and 427 mcg units/mg and 420 mcg units/mg | –
11 | N-methylbleomycin B2 [Compound (3)] | 87.6% | 95.5% | 102.1% | 0.35 µg/mL | 1,755 mcg units/mg | 1,766 mcg units/mg | 1,758 mcg units/mg and 1,770 mcg units/mg | 1,752 mcg units/mg and 1,756 mcg units/mg | –
12 | N-methylbleomycinic acid [Compound (1)] | – | – | – | 4.8 µg/mL | 64 mcg units/mg | 59 mcg units/mg | – | – | –
